{"source": "patent US9549912B2", "about": "“Methods for treating atrial fibrillation” (Armetheon, Inc., priority 2009, dated 2017)", "key": {"[1]": {"system": "sodium, potassium, and calcium ion channels", "assay": "Electrophysiological activity in animals: ion channel inhibition"}, "[2]": {"target": "cytochrome P450 2C9 (CYP2C9) (Homo sapiens, UniProt P11712)", "sequence (P11712 whole entry)": "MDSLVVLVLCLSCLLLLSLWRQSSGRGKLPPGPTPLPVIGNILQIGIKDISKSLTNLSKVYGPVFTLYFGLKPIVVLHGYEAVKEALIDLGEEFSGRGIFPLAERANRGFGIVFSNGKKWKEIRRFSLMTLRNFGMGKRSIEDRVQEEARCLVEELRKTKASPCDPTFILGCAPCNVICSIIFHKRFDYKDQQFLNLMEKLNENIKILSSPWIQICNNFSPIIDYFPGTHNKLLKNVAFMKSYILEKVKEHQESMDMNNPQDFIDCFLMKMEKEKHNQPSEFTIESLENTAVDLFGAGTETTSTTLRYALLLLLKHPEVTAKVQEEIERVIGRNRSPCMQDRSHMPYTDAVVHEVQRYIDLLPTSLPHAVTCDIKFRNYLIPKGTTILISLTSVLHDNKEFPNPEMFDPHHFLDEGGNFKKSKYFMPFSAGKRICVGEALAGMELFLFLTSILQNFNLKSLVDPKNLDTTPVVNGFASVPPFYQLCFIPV", "assay": "CYP2C9 inhibition", "type": "in vitro ADME"}, "[3]": {"system": "patients with paroxysmal atrial fibrillation (PAF)", "assay": "Randomized, double-blind, placebo-controlled study of budiodarone in PAF patients with pacemakers: AT/AF burden, episodes, NSR, GCI (Example 2)", "type": "in vivo, human", "from_the_text": "The objective of the study is to determine the efficacy of budiodarone in reducing atrial tachyarrhythmia (AT/AF) burden in patients with paroxysmal atrial fibrillation (PAF) compared to placebo, for 12 weeks of treatment, and the safety and tolerability of budiodarone for up to 12 weeks of treatment.\nSecondary: to study the effect of budiodarone versus placebo on the number and duration of AT/AF episodes, duration of normal sinus rhythm (NSR) between episodes of AT/AF and on symptoms associated with PAF.\nExample 2 describes a multicenter, multinational, randomized, double-blind, placebo-controlled, parallel-group study of the efficacy and safety of budiodarone in patients with PAF. Planned enrollment was up to 140 patients (with eventually 110 enrolled) with proven PAF who had permanently implanted pacemakers with appropriate AT/AF diagnostic and recording capabilities. Potential study participants underwent screening assessments, including the optimization of pacemaker programming for accurate AT/AF detection. Within 30 days after screening assessments began, eligible patients entered a 4-week baseline period (Period 1) when baseline atrial fibrillation burden (AFB) was established followed by randomization to one of three active treatment regimens or placebo for a 12-week treatment period (Period 2), followed by a 4-week washout period (Period 3). During the treatment period, patients received twice-daily (BID) oral doses of 200 mg ATI-2042, 400 mg ATI-2042, 600 mg ATI-2042, or placebo. No study drug was given during the baseline and washout periods.\nTo be randomized, study participant must have had: an AT/AF burden between 5% and 70% during the baseline period; no evidence of persistent AF (i.e., 7 or more consecutive days of AT/AF with episodes lasting >23 hours); able to have pacemaker atrial antitachyarrhythmia treatment algorithms turned off for the remaining duration of the study.\nEfficacy outcome measures were AT/AF burden (total time spent in AT/AF as a percentage of total observation time), number and mean duration of AT/AF episodes, mean duration of NSR, patient global clinical impression (GCI) questionnaire, and University of Toronto Atrial Fibrillation Severity Scale (AFSS).\nStatistical methods for efficacy: The primary efficacy analysis was the percent change in the AT/AF burden from baseline to the 12-week treatment period. Pairwise comparisons between each ATI-2042 dose group and the placebo group were performed using the Wilcoxon rank sum test. The primary analysis was based on the mITT population.\nFor all variables based on the pacemaker data, the Wilcoxon rank sum test was used to compare each ATI-2042 dose group to the placebo group. The Jonckheere-Terpstra test was used to test for a dose response. The Wilcoxon signed rank test was used to test for a significant change from baseline within each treatment group. An analysis of covariance (ANCOVA) was used to compare the percent change from baseline in AT/AF burden among the treatment groups after adjusting for the baseline AT/AF burden. The ANCOVA model contained effects for treatment group and baseline AT/AF burden.\nFor patient […], the Cochran-Mantel-Haenszel test was used to compare each ATI-2042 dose group to the placebo group. The Jonckheere-Terpstra test was used to test for a dose response."}, "[4]": {"assay": "Trough plasma concentrations of ATI-2042 and metabolites (Example 1)", "type": "in vivo, human", "procedure": "Patients were enrolled within 8 weeks of screening. During the study, they were reviewed on days 1, 2, and 8 of each study period. ATI-2042 was increased on day 1 of each 2-week study period, following routine bloods for haematology, biochemistry, and coagulation screens. Plasma samples for pharmacokinetic analysis of ATI-2042 and its metabolites were taken at steady state at the end of each study period just prior to the first escalated dose of the subsequent period and within 15 min prior to the pre-dose ECG for that dose.\nTrough concentrations of ATI-2042 and its metabolites (ATI-2000, ATI-2100, and ATI-2142), measured at pre-dose on day 1 of each of the four treatment periods and on days 1 and 8 of the washout period, were summarized by time point. Spearman's rank correlation was used to examine the relationship between trough concentrations of ATI-2042 and AFB."}, "[5]": {"conditions": "600 mg BID, Treatment Months 1-3, ITT"}, "[6]": {"conditions": "600 mg BID, Treatment Months 1-3, mITT"}}, "note": "Entries after “also recorded” stand apart in the source; their conditions may differ.", "data": [{"substance": "(S)-sec-butyl 2-(3-(4-(2-(diethylamino)ethoxy)-3,5-diiodobenzoyl)benzofuran-2-yl)acetate [ATI-2042]", "values": [{"measurement": "inhibition of sodium, potassium, and calcium ion channels", "setting": "[1]", "value": "inhibition comparable with amiodarone"}, {"measurement": "CYP2C9 inhibition", "setting": "[2]", "value": "inhibitor; also recorded: inhibit CYP2C9"}, {"measurement": "decrease in AFB", "setting": "[3]; 200 mg BID, mITT population, not statistically significant", "value": 10, "unit": "%"}, {"measurement": "median percent reduction from baseline in AT/AF burden", "setting": "[3]; 400 mg BID, Treatment Months 1-3, ITT population", "value": 54, "unit": "%"}, {"measurement": "median percent reduction from baseline in AT/AF burden", "setting": "[3]; 400 mg BID, Treatment Months 1-3, mITT population", "value": 54, "unit": "%"}, {"measurement": "AF episodes lasting 24 hours (FIG. 6)", "setting": "[3]; 400 mg dose cohort", "value": "only a single 24 hour episode"}, {"measurement": "patients with AF eradicated during the study period", "setting": "[3]; 600 mg", "value": "More than half the patients had their AF eradicated"}, {"measurement": "reduction of number and duration of AF episodes below baseline (FIG. 3)", "setting": "[3]; 600 mg", "value": "about 70%"}, {"measurement": "median percent reduction in AT/AF burden", "setting": "[3]; 600 mg BID, Treatment Month 3, ITT population", "value": 80, "unit": "%"}, {"measurement": "median percent reduction in AT/AF burden", "setting": "[3]; 600 mg BID, Treatment Month 3, mITT population", "value": 83, "unit": "%"}, {"measurement": "median percent change from baseline in duration of AT/AF episodes", "setting": "[3]; [5]", "value": "−51.3", "unit": "%"}, {"measurement": "median percent change from baseline in number of AT/AF episodes", "setting": "[3]; [5]", "value": "−52.9", "unit": "%"}, {"measurement": "median percent increase from baseline in duration of NSR", "setting": "[3]; [5]", "value": 208.8, "unit": "%"}, {"measurement": "median percent reduction from baseline in AT/AF burden", "setting": "[3]; 600 mg BID, Treatment Months 1-3, ITT population", "value": 74, "unit": "%"}, {"measurement": "median percent change from baseline in duration of AT/AF episodes", "setting": "[3]; [6]", "value": "−51.3", "unit": "%"}, {"measurement": "median percent change from baseline in number of AT/AF episodes", "setting": "[3]; [6]", "value": "−62.1", "unit": "%"}, {"measurement": "median percent increase from baseline in duration of NSR", "setting": "[3]; [6]", "value": 241.8, "unit": "%"}, {"measurement": "median percent reduction from baseline in AT/AF burden", "setting": "[3]; 600 mg BID, Treatment Months 1-3, mITT population", "value": 75, "unit": "%"}, {"measurement": "median percentage reduction in AFB", "setting": "[3]; 600 mg BID, third month, paragraph refers to ITT population", "value": 83, "unit": "%"}, {"measurement": "AF episodes lasting 24 or more hours (FIG. 6)", "setting": "[3]; 600 mg dose group", "value": "no patients experienced an AF episode lasting 24 or more hours"}, {"measurement": "decrease in number of AT/AF episodes (median percent change from baseline, FIG. 3)", "setting": "[3]; 600 mg, all three treatment months", "value": "more than 60%"}, {"measurement": "median AF episode duration", "setting": "[3]; 600 mg, month 3", "value": 0}, {"measurement": "decrease in duration of episodes (median percent change from baseline, FIG. 3)", "setting": "[3]; 600 mg, treatment month 1", "value": "more than 50%"}, {"measurement": "decrease in duration of episodes (median percent change from baseline, FIG. 3)", "setting": "[3]; 600 mg, treatment month 2", "value": "more than 70%"}, {"measurement": "decrease in duration of episodes (median percent change from baseline, FIG. 3)", "setting": "[3]; 600 mg, treatment month 3", "value": "~70", "unit": "%"}, {"measurement": "mean episode duration (FIG. 4)", "setting": "[3]; 600 mg, down from nearly 24", "value": "less than 1 hour"}, {"measurement": "Patient GCI: patients a lot or completely satisfied with the test medication", "setting": "[3]; ITT population, dose group not stated", "value": 60.0, "unit": "%"}, {"measurement": "Patient GCI: patients reporting a lot of improvement or complete relief", "setting": "[3]; dose group not stated, ITT and mITT both named", "value": 46.7, "unit": "%"}, {"measurement": "AFB after one-month washout", "setting": "[3]; each of the three dose groups", "value": "returned to essentially the baseline values"}, {"measurement": "mean trough level of ATI-2042", "setting": "[4]; 200 mg bid, steady state", "value": "2.4 ± 0.9", "unit": "ng/mL"}, {"measurement": "mean trough level of ATI-2042", "setting": "[4]; 400 mg bid", "value": "5.2 ± 1.7", "unit": "ng/mL"}, {"measurement": "mean trough level of ATI-2042", "setting": "[4]; 600 mg bid", "value": "13.1 ± 5.6", "unit": "ng/mL"}, {"measurement": "mean trough level of ATI-2042", "setting": "[4]; 800 mg bid", "value": "19.8 ± 17.9", "unit": "ng/mL"}, {"measurement": "trough level of ATI-2042", "setting": "[4]; washout", "value": "0.3+0.4 ng/mL"}]}]}
